The text below walks through data of the CheMixHub viscosity set.

“And” between values parts separate entries of the source, which are not always exact repeats. Identical values can stand only once. ± gives the uncertainty stated by the source.

`CC1OC(C)OC(C)O1` (stereo unspecified): the viscosity (as a rule, the resistance of a fluid to flow) (293.15 K, 101.3 kPa) was 1.224 ± 0.023 mPa·s.

`CCC(O)CO` (stereo unspecified): the viscosity runs as follows: (298.15 K, 100 kPa) 51.63 ± 1.1 mPa·s; (298.15 K, 101 kPa) 52.8 ± 0.27 mPa·s; (303.15 K, 100 kPa) 37.66 ± 0.78 mPa·s; (303.15 K, 101 kPa) 38.71 ± 0.25 mPa·s; (308.15 K, 100 kPa) 28.44 ± 0.59 mPa·s; (308.15 K, 101 kPa) 29.48 ± 0.19 mPa·s. The viscosity by setting is: (313.15 K, 100 kPa) 21.59 ± 0.45 mPa·s; (313.15 K, 101 kPa) 22.86 ± 0.15 mPa·s; (318.15 K, 100 kPa) 16.74 ± 0.35 mPa·s; (323.15 K, 100 kPa) 13.22 ± 0.27 mPa·s; (323.15 K, 101 kPa) 12.85 ± 0.77 mPa·s.

Regarding `CCCBr`, the viscosity stood at 0.531 ± 0.011 mPa·s (293.15 K, 101 kPa); 0.486 ± 0.011 mPa·s (303.15 K, 101 kPa); 0.436 ± 0.0038 mPa·s (308.15 K, 101 kPa); 0.448 ± 0.01 mPa·s (313.15 K, 101 kPa); 0.415 ± 0.009 mPa·s (323.15 K, 101 kPa).

On to `CCCC`, for which the viscosity runs as follows: (293.15 K, 101 kPa) 0.17 ± 0.01 mPa·s; (293.15 K, 101.33 kPa) 0.17 ± 0.0034 mPa·s; (313.15 K, 101 kPa) 0.143 ± 0.003 mPa·s; (313.15 K, 101.33 kPa) 0.143 ± 0.0029 mPa·s.

Consider `CCCC(=O)OC`, for which the viscosity by setting is: (298.15 K, 101 kPa) 0.546 ± 0.015 mPa·s; (323.15 K, 101 kPa) 0.374 ± 0.01 mPa·s.

Turning to `CCCCCCCC(=O)[O-].c1c[nH+]c[nH]1`, the viscosity (293.15 K, 101.3 kPa) is on record as 88.48 ± 4.6 mPa·s; the viscosity (298.15 K, 101.3 kPa) is given as 71.27 ± 2.4 mPa·s; the viscosity (303.15 K, 101.3 kPa) was determined as 56.48 ± 0.89 mPa·s; the viscosity (308.15 K, 101.3 kPa) amounted to 45.3 ± 1.1 mPa·s; the viscosity (313.15 K, 101.3 kPa) was 36.92 ± 0.87 mPa·s; the viscosity (318.15 K, 101.3 kPa) stood at 30.56 ± 0.72 mPa·s. Also, the viscosity (323.15 K, 101.3 kPa) came out at 25.33 ± 0.61 mPa·s.

`CCCCCCCCNCCCCCCCC` returned a viscosity (303.15 K, 101 kPa) of 3.665 ± 0.073 mPa·s.

With `CCCCOC(=O)c1ccccc1`, the viscosity by setting is: (293.15 K, 101.33 kPa) 2.835 ± 0.016 mPa·s; (298.15 K, 101 kPa) 2.691 ± 0.085 mPa·s; (303.15 K, 101.33 kPa) 2.189 ± 0.013 mPa·s; (308.15 K, 101 kPa) 2.208 ± 0.069 mPa·s; (313.15 K, 101.33 kPa) 1.73 ± 0.01 mPa·s; (318.15 K, 101 kPa) 1.819 ± 0.057 mPa·s. For the same compound, the viscosity (323.15 K, 101.33 kPa) came to 1.388 ± 0.009 mPa·s.

In turn, `CCOC(=O)CCCBr` came in with a viscosity (303.15 K, 101 kPa) of 1.826 ± 0.011 mPa·s.

On to `CN(CCO)CCO`, for which the viscosity was 101.2 ± 6.2 mPa·s (293.15 K, 101 kPa); 74.81 ± 4.5 mPa·s (298.15 K, 101 kPa); 77.19 ± 2.4 mPa·s and 77.19 ± 0.84 mPa·s (298.15 K, 101.33 kPa); 37.9 ± 2 mPa·s and 34.04 ± 0.41 mPa·s (313.15 K, 101 kPa); 24.7 ± 1.3 mPa·s and 21.53 ± 0.27 mPa·s (323.15 K, 101 kPa).

With `COCCOCCOCCO`, the viscosity is 7.211 ± 0.13 mPa·s (293.15 K, 101 kPa); 6.287 ± 0.13 mPa·s and 6.254 ± 0.11 mPa·s (298.15 K, 101 kPa); 5.412 ± 0.099 mPa·s (303.15 K, 101 kPa); 4.535 ± 0.097 mPa·s (308.15 K, 101 kPa); 4.642 ± 0.11 mPa·s and 5.055 ± 0.13 mPa·s (308.15 K, 101.33 kPa); 4.074 ± 0.31 mPa·s and 4.08 ± 0.068 mPa·s (313.15 K, 101.33 kPa). The viscosity is 3.726 ± 0.079 mPa·s (318.15 K, 101 kPa); 3.202 ± 0.31 mPa·s and 3.2 ± 0.053 mPa·s (323.15 K, 101.33 kPa).

For the compound `COCCOCCOCCOC`, the viscosity by setting is: (298.15 K, 101 kPa) 1.979 ± 0.06 mPa·s; (298.15 K, 101.33 kPa) 1.95 ± 0.015 mPa·s; (308.15 K, 101 kPa) 1.607 ± 0.05 mPa·s.

`ClCc1ccccc1`: the viscosity (298.15 K, 101 kPa) is on record as 1.377 ± 0.033 mPa·s and the viscosity (303.15 K, 101 kPa) is 1.112 ± 0.01 mPa·s.

Regarding `NCCN`, the viscosity runs as follows: (293.15 K, 101 kPa) 1.52 ± 0.03 mPa·s and 1.62 ± 0.12 mPa·s and 1.54 ± 0.03 mPa·s; (298.15 K, 101 kPa) 1.37 ± 0.03 mPa·s and 1.39 ± 0.03 mPa·s and 1.26 ± 0.034 mPa·s; (303.15 K, 101 kPa) 1.16 ± 0.03 mPa·s and 1.18 ± 0.03 mPa·s and 1.299 ± 0.01 mPa·s (2×); (303.15 K, 101.3 kPa) 1.29 ± 0.13 mPa·s; (303.15 K, 101.33 kPa) 1.299 ± 0.01 mPa·s; (308.15 K, 101.3 kPa) 1.167 ± 0.12 mPa·s. Moreover, the viscosity reads like this: (308.15 K, 101.33 kPa) 1.191 ± 0.01 mPa·s; (313.15 K, 100 kPa) 0.7611 ± 0.0066 mPa·s; (313.15 K, 101.3 kPa) 1.06 ± 0.11 mPa·s; (313.15 K, 101.33 kPa) 1.08 ± 0.009 mPa·s; (318.15 K, 101.3 kPa) 0.967 ± 0.097 mPa·s; (318.15 K, 101.33 kPa) 0.986 ± 0.008 mPa·s. The viscosity (323.15 K, 101 kPa) was 0.737 ± 0.02 mPa·s and 0.9042 ± 0.0074 mPa·s and 0.904 ± 0.007 mPa·s; the viscosity (323.15 K, 101.33 kPa) came out at 0.904 ± 0.007 mPa·s.
